The numbers were not newly measured in patent US20240216329A1, “PUTRESCINE TOPICAL FORMULATIONS” (VIVIER CANADA INC., priority 2017, published 2024), which cites them from elsewhere.

The test system of data set [1] is collagen cross-linking (fibroblast tissue transglutaminase). The settings on record: in vitro and in vivo.
Another data set deals with scar fibroblasts. The settings on record: human harvested scars.

With `NCCCCN` [putrescine, 1,4-diaminobutane], the collagen cross-linking result in data set [1] is given as “reduce collagen cross-linking”. For the same molecule, the “apoptosis of scar fibroblasts” value in the data set with scar fibroblasts was “increase in apoptosis of scar fibroblasts”. Moreover, the “barrier function of the epidermis” value in the data set on epidermis of eroded skin (eroded skin, topical) is recorded as “increasing its barrier function”. The “thickness of the stratum lucidum / inner strata of epidermis” value in the data set on epidermis of eroded skin (stratum lucidum in animals, inner strata of human epidermis) is “increasing”.
